Experimental data published in patent US10422788B2, “Profiling peptides and methods for sensitivity profiling” (Tolero Pharmaceuticals, Inc., priority 2016, dated 2019).

Key:
[1] = system: subject samples; assay: Reference Lab NOXA priming assay on subject samples; type: cell-based, human
[2] = system: MOLM-13; conditions: published NOXA test results; cited from earlier work
[3] = system: OCI-AML3; conditions: published NOXA test results; cited from earlier work
[4] = system: THP-1; conditions: published NOXA test results; cited from earlier work
[5] = system: HL-60; conditions: published NOXA test results; cited from earlier work
[6] = system: U-937; conditions: published NOXA test results; cited from earlier work
[7] = system: KG-1; conditions: published NOXA test results; cited from earlier work
[8] = system: MV4-11; conditions: published NOXA test results; cited from earlier work
[9] = Sample # 17, subject treated with FLAM, complete response
[10] = Sample # 18, subject treated with FLAM, complete response
[11] = Sample # 19, subject treated with FLAM, complete response

Sequence: AELPPEFAAQLRKIGDKVYC (NOXA sequence) [standard NOXA BH3 peptide, used for comparison]
- Reference Lab NOXA Priming % ([1]; Sample # 1): 14.0%
- Reference Lab NOXA Result (Pos/Neg) ([1]; Sample # 1): Neg (Concordance based on cutoff of ≥40% MCL-1 Dependency for both methods.)
- Reference Lab NOXA Priming % ([1]; Sample # 2): 60.0%
- Reference Lab NOXA Result (Pos/Neg) ([1]; Sample # 2): Pos (Concordance based on cutoff of ≥40% MCL-1 Dependency for both methods.)
- Reference Lab NOXA Priming % ([1]; Sample # 3): 16.0%
- Reference Lab NOXA Result (Pos/Neg) ([1]; Sample # 3): Neg (Concordance based on cutoff of ≥40% MCL-1 Dependency for both methods.)
- Reference Lab NOXA Priming % ([1]; Sample # 4): 0.0%
- Reference Lab NOXA Result (Pos/Neg) ([1]; Sample # 4): Neg (Concordance based on cutoff of ≥40% MCL-1 Dependency for both methods.)
- Reference Lab NOXA Priming % ([1]; Sample # 5): 94.4%
- Reference Lab NOXA Result (Pos/Neg) ([1]; Sample # 5): Pos (Concordance based on cutoff of ≥40% MCL-1 Dependency for both methods.)
- Reference Lab NOXA Priming % ([1]; Sample # 6): 48.6%
- Reference Lab NOXA Result (Pos/Neg) ([1]; Sample # 6): Pos (Concordance based on cutoff of ≥40% MCL-1 Dependency for both methods.)
- Reference Lab NOXA Priming % ([1]; Sample # 7): 0.0%
- Reference Lab NOXA Result (Pos/Neg) ([1]; Sample # 7): Neg (Concordance based on cutoff of ≥40% MCL-1 Dependency for both methods.)
- Reference Lab NOXA Priming % ([1]; Sample # 8): 23.5%
- Reference Lab NOXA Result (Pos/Neg) ([1]; Sample # 8): Neg (Concordance based on cutoff of ≥40% MCL-1 Dependency for both methods.)
- Reference Lab NOXA Priming % ([1]; Sample # 9): 79.1%
- Reference Lab NOXA Result (Pos/Neg) ([1]; Sample # 9): Pos (Concordance based on cutoff of ≥40% MCL-1 Dependency for both methods.)
- Reference Lab NOXA Priming % ([1]; Sample # 10): 38.0%
- Reference Lab NOXA Result (Pos/Neg) ([1]; Sample # 10): Neg (Concordance based on cutoff of ≥40% MCL-1 Dependency for both methods.)
- Reference Lab NOXA Priming % ([1]; Sample # 11): 43.3%
- Reference Lab NOXA Result (Pos/Neg) ([1]; Sample # 11): Pos (Concordance based on cutoff of ≥40% MCL-1 Dependency for both methods.)
- Reference Lab NOXA Priming % ([1]; Sample # 12): 0.0%
- Reference Lab NOXA Result (Pos/Neg) ([1]; Sample # 12): Neg (Concordance based on cutoff of ≥40% MCL-1 Dependency for both methods.)
- Reference Lab NOXA Priming % ([1]; Sample # 13): 0.0%
- Reference Lab NOXA Result (Pos/Neg) ([1]; Sample # 13): Neg (Concordance based on cutoff of ≥40% MCL-1 Dependency for both methods.)
- Reference Lab NOXA Priming % ([1]; Sample # 14): 0.0%
- Reference Lab NOXA Result (Pos/Neg) ([1]; Sample # 14): Neg (Concordance based on cutoff of ≥40% MCL-1 Dependency for both methods.)
- Reference Lab NOXA Priming % ([1]; Sample # 15): 7.0%
- Reference Lab NOXA Result (Pos/Neg) ([1]; Sample # 15): Neg (Concordance based on cutoff of ≥40% MCL-1 Dependency for both methods.)
- Reference Lab NOXA Priming % ([1]; Sample # 16): 7.0%
- Reference Lab NOXA Result (Pos/Neg) ([1]; Sample # 16): Neg (Concordance based on cutoff of ≥40% MCL-1 Dependency for both methods.)
- Reference Lab NOXA Priming % [1, 9]: 10.89%
- Reference Lab NOXA Result (Pos/Neg) [1, 9]: Neg (Concordance based on cutoff of ≥40% MCL-1 Dependency for both methods.)
- Reference Lab NOXA Priming % [1, 10]: 14.43%
- Reference Lab NOXA Result (Pos/Neg) [1, 10]: Neg (Concordance based on cutoff of ≥40% MCL-1 Dependency for both methods.)
- Reference Lab NOXA Priming % [1, 11]: 0.0%
- Reference Lab NOXA Result (Pos/Neg) [1, 11]: Neg (Concordance based on cutoff of ≥40% MCL-1 Dependency for both methods.)
- NOXA Priming % [2]: 19.24%
- NOXA Priming % [3]: 21.96%
- NOXA Priming % [4]: 11.28%
- NOXA Priming % [5]: 7.60%
- NOXA Priming % [6]: 24.35%
- NOXA Priming % [7]: 12.39%
- NOXA Priming % [8]: 12.84%
